In patent US20100130457A1, “Phenothiazine Derivatives for Treatment of Asthma” (Immune Control, Inc., priority 2008, published 2010):
“Also recorded” adds a separate entry of the source. Read-outs that look alike come from different tables or passages of the source.

Experiments:
MPR1-MDCK = MPR1-MDCK permeability, potential to cross the blood-brain barrier; format: in vitro ADME; conditions: from A-B Papp and efflux ratio
From the text: (§1) A criterion for selecting an agent for proceeding to clinical trials is whether the compound crosses the blood-brain barrier. […] Fluphenazine (ICI-01175) is used as a control compound that has the potential to cross the blood-brain barrier. Table 1 summarizes the results of the test compounds for their potential to cross the blood-brain barrier.

[1] = as above; format: in vitro ADME; conditions: dog, MDCK
From the text: as §1

hCav1.2 = hCav1.2 (Homo sapiens, UniProt Q13936); test: Cardiac ion channels expressed in mammalian cells; format: cell-based; conditions: 0.1 μM, 1 μm, 10 μm, and 100 μm
From the text: Opening of voltage-gated calcium channels results in influx of calcium ions into the cell. This influx of calcium plays an important role in excitation-contraction coupling in cardiac and skeletal muscle fibers. The reversal potential for calcium is extremely positive, so calcium current is almost always inward, resulting in an action potential plateau in many excitable cells. These channels are the target of calcium channel blocker subtype of antihypertensive drugs. The alpha-1 subunit forms the ion conducting pore, with several modulating auxiliary subunits. Major subtypes of voltage-gated calcium channels include L-type (Cav1.1, Cav1.2, Cav1.3, Cav1.4), T-type (Cav3.1, Cav3.2, Cav3.3), N-type (Cav2.2), P-type (Cav2.1), and R-type (Cav2.3).
Mammalian cells were treated with ICI-735 (0.1 μM, 1 μm, 10 μm, and 100 μm) to determine whether ICI-735 blocked the expression of cardiac ion channels. It was observed that ICI-735 was able to block the expression of both hERG and hCav1.2). Without wishing to be bound by any particular theory, it is believed that the blocks in hERG and calcium channels may cancel one another physiologically, but sodium channel effect may lead to changes in membrane potential.

5-HT1B receptor = 5-HT1B receptor (Homo sapiens, UniProt P28222); test: Serotonin-receptor binding assay; conditions: 10 μM and 0.1 μM
From the text: (§2) The methods employed in this study have been adapted from the scientific literature to maximize reliability and reproducibility. The experiments include contacting a serotonin type 1A, 1B, 1D, 2A, 2B, 2C, 3, 4, 5A, 6, and 7 receptor with a test compound and comparing the level of binding of serotonin or a control compound (e.g., fluphenazine) with that serotonin type 1A, 1B, 1D, 2A, 2B, 2C, 3, 4, 5A, 6, and 7 receptor with the level of serotonin binding or control compound binding with an otherwise identical serotonin type 1A, 1B, 1D, 2A, 2B, 2C, 3, 4, 5A, 6, and 7 receptor not contacted with the test compound. […] The skilled artisan would also appreciate, in view of the disclosure provided herein, that standard binding assays known in the art, or those to be developed in the future, can be used to assess the binding of serotonin or a control compound with a serotonin type 1A, 1B, 1D, 2A, 2B, 2C, 3, 4, 5A, 6, and 7 receptor in the presence or absence of the test compound to identify a useful compound.
(§3) ICI-735 and fluphenazine were tested for selective binding to 1A, 1B, 1D, 2A, 2B, 2C, 3, 4, 5A, 6, and 7 receptors at concentrations of 10 μM and 0.1 μM.

5-HT2A receptor = 5-HT2A receptor (Homo sapiens, UniProt P28223); test: Serotonin-receptor binding assay; conditions: 10 μM and 0.1 μM
From the text: as §2, §3

5-HT7 receptor = 5-HT7 receptor (Homo sapiens, UniProt P34969); test: Serotonin-receptor binding assay; conditions: 10 μM and 0.1 μM
From the text: as §2, §3

[2] = Pharmacokinetics, plasma levels in mice; format: in vivo, mouse
Experimental: Mice were treated with either 1.0 mg/kg or 10 mg/kg of ICI-735 by way of intraperitoneal administration. The plasma levels of ICI-735 were measured at baseline and various time points following administration (FIG. 6). […] Without wishing to be bound by any particular theory, it is believed that the effectiveness of ICI-735 to treat asthma can be achieved with a low dose (e.g, 1.0 mg/kg dose).
Mice were also treated with either 2.5 mg/kg intravenously or 5 mg/kg orally of ICI-735. The plasma levels of ICI-735 were measured at baseline and various time points following administration (FIG. 7). […] It was determined that oral bioavailability was approximately 20%. Therefore, it is believed that ICI-735 administration orally at approximately 1 mg/kg/day is effective at reducing lung resistence in patients with asthma.

hERG = target: T1, hERG (Homo sapiens, UniProt Q12809); test: Cardiac ion channels expressed in mammalian cells; format: cell-based; conditions: 0.1 μM, 1 μm, 10 μm, and 100 μm
T1 construct: expressed in transfected cells
From the text: Voltage-gated K channels are activated by membrane depolarization. As with all voltage-gated ion channels, depolarization results in a conformational change in the S4 voltage sensor which contains positively charged amino acids. This conformational change triggers additional conformational changes leading to channel opening. Upon depolarization, these channels open, allowing the efflux of potassium from the cell, down its electrochemical gradient. They function in the heart and brain to repolarize the membrane potential and to terminate an action potential. A-type potassium currents are quickly inactivating potassium currents (eg, Kv4.2 and Kv1.4) and are important in the initial notch of repolarization in cardiac cells and the fast-spiking behavior of some neurons. Slowly inactivating channels provide more prolonged repolarization effects (eg, Kv1.5, Kv3.1, Kv2.1). hERG (human Ether-a-go-go Related Gene) channels are unusual voltage-gated potassium channels in that they are inwardly rectifying due to accelerated inactivation at positive voltages. hERG channels play a role in long-QT syndrome and block of hERG can precipitate torsades de pointe which may lead to fatal ventricular fibrillation. Screening of drugs for effects on hERG is desirable in investigational compounds. […]

RPMI 8226 = test: Inhibition of proliferation of RPMI 8226 cells; format: cell-based, human; conditions: RPMI cells in vitro
From the text: The next set of experiments was designed to assess compounds that have low levels of brain penetration for the ability of the test compounds to inhibit cellular proliferation. An exemplary in vitro assay is to screen for the ability of the test compounds to inhibit proliferation of the B-cell neoplastic cell line RPMI 8226 (a plasmacytoma derived from a multiple myeloma patient (Matsuoka, et al., 1967, Proc. Soc. Exp. Biol. Med. 125: 1246-1250). However other cell line can be used such as, U266 (established from an IgE-secreting myeloma patient (Nilsson, et al., 1970, Clin. Exp. Immunol., 7: 477-489) and ARH77 (an EBV transformed plasma cell leukemia (Burk, et al., 1978, Cancer Res. 38: 2508-2513).
FIG. 1 is a graph depicting the effects on the test compounds on RPMI cell viability.

Sequence of 5-HT1B receptor (P28222 whole entry): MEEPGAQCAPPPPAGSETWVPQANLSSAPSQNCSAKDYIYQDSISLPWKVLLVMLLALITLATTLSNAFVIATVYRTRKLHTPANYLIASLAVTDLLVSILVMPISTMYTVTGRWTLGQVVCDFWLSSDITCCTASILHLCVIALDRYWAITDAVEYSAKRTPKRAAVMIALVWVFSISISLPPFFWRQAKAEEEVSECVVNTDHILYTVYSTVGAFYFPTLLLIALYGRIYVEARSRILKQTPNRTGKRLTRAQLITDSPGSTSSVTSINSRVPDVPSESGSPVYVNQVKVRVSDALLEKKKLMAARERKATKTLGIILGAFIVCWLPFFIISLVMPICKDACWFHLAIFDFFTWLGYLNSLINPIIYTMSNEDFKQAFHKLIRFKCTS
Sequence of 5-HT2A receptor (P28223 whole entry): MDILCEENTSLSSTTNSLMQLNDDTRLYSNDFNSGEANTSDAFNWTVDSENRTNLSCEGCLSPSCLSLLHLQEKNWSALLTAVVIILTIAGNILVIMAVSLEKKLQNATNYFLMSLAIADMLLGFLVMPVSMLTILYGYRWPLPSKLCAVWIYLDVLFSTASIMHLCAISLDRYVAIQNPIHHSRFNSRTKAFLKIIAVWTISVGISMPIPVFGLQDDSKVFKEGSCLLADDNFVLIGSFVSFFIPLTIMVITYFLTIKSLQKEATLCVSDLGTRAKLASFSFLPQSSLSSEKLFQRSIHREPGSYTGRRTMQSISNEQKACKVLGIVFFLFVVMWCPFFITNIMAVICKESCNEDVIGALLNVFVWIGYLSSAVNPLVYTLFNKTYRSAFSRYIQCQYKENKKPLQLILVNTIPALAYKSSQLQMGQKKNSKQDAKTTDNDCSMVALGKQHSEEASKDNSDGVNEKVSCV
Sequence of 5-HT7 receptor (P34969 whole entry): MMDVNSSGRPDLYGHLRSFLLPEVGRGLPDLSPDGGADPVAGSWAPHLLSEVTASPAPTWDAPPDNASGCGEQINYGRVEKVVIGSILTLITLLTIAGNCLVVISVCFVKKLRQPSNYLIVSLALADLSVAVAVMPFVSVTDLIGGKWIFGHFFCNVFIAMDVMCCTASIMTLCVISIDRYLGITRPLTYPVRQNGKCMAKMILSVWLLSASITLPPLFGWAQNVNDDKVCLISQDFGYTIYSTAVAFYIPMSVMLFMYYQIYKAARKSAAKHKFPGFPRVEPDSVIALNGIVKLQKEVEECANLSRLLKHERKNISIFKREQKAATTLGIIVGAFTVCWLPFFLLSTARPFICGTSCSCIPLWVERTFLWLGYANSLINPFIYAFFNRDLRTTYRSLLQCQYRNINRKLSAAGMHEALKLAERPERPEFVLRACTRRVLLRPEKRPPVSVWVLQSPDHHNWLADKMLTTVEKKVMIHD
T1 sequence (Q12809 whole entry): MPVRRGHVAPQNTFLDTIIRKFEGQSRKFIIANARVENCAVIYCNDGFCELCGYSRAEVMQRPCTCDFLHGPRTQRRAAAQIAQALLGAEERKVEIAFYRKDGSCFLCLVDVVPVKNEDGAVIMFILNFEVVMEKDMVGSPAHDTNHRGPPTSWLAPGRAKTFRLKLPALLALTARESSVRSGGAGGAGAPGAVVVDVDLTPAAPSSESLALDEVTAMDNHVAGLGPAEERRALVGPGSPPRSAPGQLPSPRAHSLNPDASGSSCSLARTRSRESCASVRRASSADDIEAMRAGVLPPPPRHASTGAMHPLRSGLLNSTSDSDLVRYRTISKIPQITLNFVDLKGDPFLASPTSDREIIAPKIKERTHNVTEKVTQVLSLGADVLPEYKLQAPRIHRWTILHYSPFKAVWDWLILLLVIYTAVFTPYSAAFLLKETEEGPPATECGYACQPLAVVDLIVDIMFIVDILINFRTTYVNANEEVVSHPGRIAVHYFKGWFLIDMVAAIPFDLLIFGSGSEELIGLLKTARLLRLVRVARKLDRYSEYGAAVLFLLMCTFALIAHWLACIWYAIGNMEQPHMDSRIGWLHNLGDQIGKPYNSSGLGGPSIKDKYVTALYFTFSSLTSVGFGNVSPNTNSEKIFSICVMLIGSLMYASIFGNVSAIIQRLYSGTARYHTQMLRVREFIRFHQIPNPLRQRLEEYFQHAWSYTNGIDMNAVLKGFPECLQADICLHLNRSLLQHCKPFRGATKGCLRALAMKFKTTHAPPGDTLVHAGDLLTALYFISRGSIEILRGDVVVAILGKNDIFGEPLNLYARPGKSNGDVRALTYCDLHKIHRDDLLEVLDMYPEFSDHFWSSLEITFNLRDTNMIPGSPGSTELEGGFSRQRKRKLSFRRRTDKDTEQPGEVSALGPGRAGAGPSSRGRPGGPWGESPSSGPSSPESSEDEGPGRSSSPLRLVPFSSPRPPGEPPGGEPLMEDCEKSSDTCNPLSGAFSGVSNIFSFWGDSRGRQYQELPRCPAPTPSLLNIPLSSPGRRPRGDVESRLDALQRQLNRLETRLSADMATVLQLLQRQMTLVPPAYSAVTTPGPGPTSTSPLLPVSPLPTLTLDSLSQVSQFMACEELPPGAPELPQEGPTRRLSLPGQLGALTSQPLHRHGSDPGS

## NCC(=O)NCCN1CCN(CCCN2c3ccccc3Sc3ccc(C(F)(F)F)cc32)CC1 [ICI-735]
MPR1-MDCK
  Brain Penetration Classification: Low (A-B Papp > 3.0 and Efflux Ratio > 10: Low)
[1]; A-B direction
  Papp A→B: 0.23 ×10⁻⁶ cm/s
[1]; A-B direction, read-out: % Recovery A-B
  recovery: 47%
[1]; B-A direction
  Papp B→A: 28.6 ×10⁻⁶ cm/s
[1]; B-A direction, read-out: % Recovery B-A
  recovery: 33%
[1]; efflux ratio
  efflux ratio: 124
hCav1.2
  block of hCav1.2: able to block
5-HT1B receptor
  binding to 5-HT1B receptor as compared to fluphenazine: significant increase activity; also recorded: increased binding
5-HT2A receptor
  binding to 5-HT2A receptor as compared to fluphenazine: decrease activity; also recorded: decreased binding
5-HT7 receptor
  binding to 5-HT7 receptor as compared to fluphenazine: significant increase activity; also recorded: increased binding
[2]
  plasma levels after oral 5 mg/kg dose versus intravenous 2.5 mg/kg dose: comparable
[2]; intraperitoneal
  plasma levels after 1.0 mg/kg dose versus 10 mg/kg dose: comparable
[2]; mouse, plasma, oral, 5 mg/kg orally vs 2.5 mg/kg intravenously
  bioavailability: ~20%
hERG
  block of hERG: able to block
RPMI 8226
  ability to inhibit proliferation of RPMI cells: did not inhibit proliferation of RPMI cells in vitro as well as some other compounds; also recorded: effective, but not as effective
